Assay results published in PubChem BioAssay AID328 (DTP/NCI, 2004).
Several values for one entry are separate records, joined by “and”; a condition that tells them apart may be missing. Equal values may be shown once. Toxic doses and inconclusive results are not listed. Rule for the calls: active = survival T/C of 150% or more; inactive = T/C below 125% in these data. Residues, ends and D or L forms follow the SMILES beside them. *: point of attachment. For = O=C*

Tested on: BDF1 mice, P388 leukemia ip, median survival T/C
Assay: NCI In Vivo Anticancer Drug Screen. Data for tumor model P388 Leukemia (intraperitoneal) in B6D2F1 (BDF1) mice
Conditions: endpoint: median survival time, higher = longer survival
In short: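 Transplantable tumour in mice; compound vs vehicle dosing; survival scored; ratio of treated to control reported.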

[1] = dose: 100.0 mg/kg/injection, schedule: Q04DX003 (ip), vehicle: saline
[2] = dose: 200.0 mg/kg/injection, schedule: Q04DX003 (ip), vehicle: saline
[3] = dose: 100.0 mg/kg/injection, schedule: Q01DX009 (ip), vehicle: saline with Tween-80
[4] = dose: 200.0 mg/kg/injection, schedule: Q01DX009 (ip), vehicle: saline with Tween-80
[5] = dose: 150.0 mg/kg/injection, schedule: Q04DX003 (ip), vehicle: saline
[6] = dose: 100.0 mg/kg/injection, schedule: Q04DX003 (ip), vehicle: saline with Tween-80
[7] = dose: 200.0 mg/kg/injection, schedule: Q04DX003 (ip), vehicle: saline with Tween-80
[8] = dose: 400.0 mg/kg/injection, schedule: Q04DX003 (ip), vehicle: saline with Tween-80

Measured: T/C

CC(C#N)(Nc1ccccc1)c1ccc(Br)cc1 (stereo not drawn)
inactive: dose: 100.0 mg/kg/injection, schedule: Q04DX003 (ip), vehicle: saline sonified 104 % of control | dose: 200.0 mg/kg/injection, schedule: Q04DX003 (ip), vehicle: saline sonified 95 % of control | dose: 400.0 mg/kg/injection, schedule: Q04DX003 (ip), vehicle: saline sonified 95 % of control

C#CCOC(=O)NCC
inactive: dose: 100.0 mg/kg/injection, schedule: Q01DX009 (ip), vehicle: saline 100 % of control | [1] 100 % of control | dose: 200.0 mg/kg/injection, schedule: Q01DX009 (ip), vehicle: saline 115 % of control | [2] 100 % of control | dose: 400.0 mg/kg/injection, schedule: Q01DX009 (ip), vehicle: saline 115 % of control | dose: 400.0 mg/kg/injection, schedule: Q04DX003 (ip), vehicle: saline 104 % of control

COC(=O)C(CSCSC)NC(=O)/C=C/c1cc(OC)ccc1OC (stereo not drawn)
inactive: dose: 50.0 mg/kg/injection, schedule: Q01DX009 (ip), vehicle: saline with Tween-80 93 % of control | [3] 92 % of control | [4] 88 % of control

NC(=O)c1c(Cl)nc(-c2cccc([N+](=O)[O-])c2)c([N+](=O)[O-])c1C(F)(F)F
inactive: dose: 50.0 mg/kg/injection, schedule: Q01DX005 (ip), vehicle: saline with Tween-80 87 % of control | dose: 100.0 mg/kg/injection, schedule: Q01DX005 (ip), vehicle: saline with Tween-80 115 % of control | dose: 200.0 mg/kg/injection, schedule: Q01DX005 (ip), vehicle: saline with Tween-80 112 % of control

O=C(O)CCCc1ccc(Oc2ccccc2)cc1
inactive: dose: 100.0 mg/kg/injection, schedule: Q04DX003 (ip), vehicle: other 92 % of control | dose: 200.0 mg/kg/injection, schedule: Q04DX003 (ip), vehicle: other 93 % of control | dose: 400.0 mg/kg/injection, schedule: Q04DX003 (ip), vehicle: other 86 % of control

COc1cc(/C=C2/CCCCC2=O)ccc1O
inactive: dose: 100.0 mg/kg/injection, schedule: Q01DX001 (ip), vehicle: other 104 % of control | dose: 200.0 mg/kg/injection, schedule: Q01DX001 (ip), vehicle: other 95 % of control | dose: 400.0 mg/kg/injection, schedule: Q01DX001 (ip), vehicle: other 104 % of control

Nc1nc(SN=Nc2ccc(S(=O)(=O)O)cc2)c2[nH]cnc2n1
inactive: dose: 4.0 mg/kg/injection, schedule: Q01DX009 (ip), vehicle: Klucel (hydroxypropylcellulose) (HPC) 113 % of control | dose: 9.0 mg/kg/injection, schedule: Q01DX009 (ip), vehicle: Klucel (hydroxypropylcellulose) (HPC) 121 % of control | dose: 20.0 mg/kg/injection, schedule: Q04DX003 (ip), vehicle: Klucel (hydroxypropylcellulose) (HPC) 108 % of control | dose: 30.0 mg/kg/injection, schedule: Q04DX003 (ip), vehicle: Klucel (hydroxypropylcellulose) (HPC) 120 % of control | dose: 45.0 mg/kg/injection, schedule: Q04DX003 (ip), vehicle: Klucel (hydroxypropylcellulose) (HPC) 112 % of control | dose: 66.0 mg/kg/injection, schedule: Q04DX003 (ip), vehicle: saline 122 % of control | [1] 118 % of control | dose: 150.0 mg/kg/injection, schedule: Q04DX003 (ip), vehicle: Klucel (hydroxypropylcellulose) (HPC) 115 % of control | [5] 113 % of control | dose: 200.0 mg/kg/injection, schedule: Q04DX003 (ip), vehicle: Klucel (hydroxypropylcellulose) (HPC) 116 % of control

Cn1cnc([N+](=O)[O-])c1[Se]c1ncnc2c1ncn2C1OC(CO)C(O)C1O (stereo not drawn)
inactive: dose: 6.25 mg/kg/injection, schedule: Q01DX009 (ip), vehicle: saline 105 % of control | dose: 12.5 mg/kg/injection, schedule: Q01DX009 (ip), vehicle: saline 113 % of control | dose: 12.5 mg/kg/injection, schedule: Q04DX003 (ip), vehicle: saline 113 % of control | dose: 25.0 mg/kg/injection, schedule: Q01DX009 (ip), vehicle: saline 102 % of control | dose: 25.0 mg/kg/injection, schedule: Q04DX003 (ip), vehicle: saline 100 % of control and 104 % of control | dose: 50.0 mg/kg/injection, schedule: Q04DX003 (ip), vehicle: saline 100 % of control and 113 % of control | [1] 100 % of control | [2] 100 % of control

Cc1ccc(S(=O)(=O)N(C)c2ccc(C(=O)O)cc2F)cc1
inactive: dose: 75.0 mg/kg/injection, schedule: Q04DX003 (ip), vehicle: saline 100 % of control | [5] 104 % of control | dose: 300.0 mg/kg/injection, schedule: Q04DX003 (ip), vehicle: saline 100 % of control

COC(=O)C(CC(C)C)NC(=O)C(Cc1ccc(O)cc1)NC=O (stereo not drawn) (For-Tyr-Leu-OMe; configuration not given here)
inactive: [3] 99 % of control | [6] 105 % of control | [4] 115 % of control | [7] 110 % of control | dose: 400.0 mg/kg/injection, schedule: Q01DX009 (ip), vehicle: saline with Tween-80 106 % of control | [8] 112 % of control

COc1cc2cc(c1Cl)N(C)C(=O)CC(OC(C)=O)C1(C)OC1C(C)C1CC(O)(NC(=O)O1)C(OC)C=C/C=C(\C)C2 (stereo not drawn)
inactive: dose: 0.2 micrograms/kg/injection, schedule: Q01DX009 (ip), vehicle: saline + alcohol 90 % of control | dose: 0.4 micrograms/kg/injection, schedule: Q01DX009 (ip), vehicle: saline + alcohol 95 % of control | dose: 0.8 micrograms/kg/injection, schedule: Q01DX009 (ip), vehicle: saline + alcohol 95 % of control and 110 % of control | dose: 1.6 micrograms/kg/injection, schedule: Q01DX009 (ip), vehicle: saline + alcohol 100 % of control | dose: 3.1 micrograms/kg/injection, schedule: Q01DX009 (ip), vehicle: saline + alcohol 110 % of control | dose: 200.0 micrograms/kg/injection, schedule: Q01DX009 (ip), vehicle: saline + alcohol 100 % of control
active: dose: 1.5 micrograms/kg/injection, schedule: Q01DX009 (ip), vehicle: saline + alcohol 150 % of control | dose: 6.2 micrograms/kg/injection, schedule: Q01DX009 (ip), vehicle: saline + alcohol 150 % of control | dose: 12.5 micrograms/kg/injection, schedule: Q01DX009 (ip), vehicle: saline + alcohol 158 % of control | dose: 25.0 micrograms/kg/injection, schedule: Q01DX009 (ip), vehicle: saline + alcohol 170 % of control and 173 % of control | dose: 50.0 micrograms/kg/injection, schedule: Q01DX009 (ip), vehicle: saline + alcohol 183 % of control (2×) and 190 % of control | dose: 100.0 micrograms/kg/injection, schedule: Q01DX009 (ip), vehicle: saline + alcohol 230 % of control and 204 % of control

CSC(N)=Nc1ccc(C(=O)O)cc1
inactive: [6] 100 % of control | [7] 104 % of control | [8] 95 % of control
